Results published in ChEMBL document CHEMBL1152274, “Discovery of potent and selective agonists for the free fatty acid receptor 1 (FFA(1)/GPR40), a potential target for the treatment of type II diabetes” (J Med Chem, 2008).
pEC50: −log10 of the molar value. The source made the active and inactive calls. The calls are words filed in the database; no cut-off is given here.

Experiments:
[1] = target: T1, Free fatty acid receptor 1 (Homo sapiens, UniProt O14842); test: Agonist activity at human FFA1 expressed in human 1321N1 cells by calcium fluorescence assay relative to 3-(4-(benzyloxy)phenyl)propionic acid; assay type: functional, cell-based
T1 sequence (O14842 whole entry): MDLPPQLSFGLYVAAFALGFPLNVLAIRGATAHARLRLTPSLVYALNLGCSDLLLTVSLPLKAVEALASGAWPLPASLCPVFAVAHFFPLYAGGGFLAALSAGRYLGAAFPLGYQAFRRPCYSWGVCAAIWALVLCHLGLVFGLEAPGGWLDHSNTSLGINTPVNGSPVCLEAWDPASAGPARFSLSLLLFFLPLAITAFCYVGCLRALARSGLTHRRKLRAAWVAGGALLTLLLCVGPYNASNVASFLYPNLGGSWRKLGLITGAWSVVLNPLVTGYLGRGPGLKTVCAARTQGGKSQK

[2] = target: T1, Free fatty acid receptor 1; test: Agonist activity at human FFA1 expressed in human 1321N1 cells by calcium fluorescence assay; assay type: functional, cell-based; settings: for pEC50: read-out: EC50; for EC50: read-out: pEC50 (converted)
INS-1E [3] = test: Enhancement of insulin secretion in rat INS-1E cells in presence of 12 mM glucose; assay type: functional, cell-based
Pancreatic islet [4] = test: Induction of glucose-stimulated insulin secretion in pancreatic islets cells isolated from FFA1-deficient mouse; assay type: functional, cell-based
INS-1E [5] = test: Enhancement of palmitate-stimulated insulin secretion in rat INS-1E cells at 10 uM; assay type: functional, cell-based
INS-1E [6] = test: Reduction of basal insulin secretion in rat INS-1E cells in presence of 2.8 mM glucose; assay type: functional, cell-based
Pancreatic islet [7] = test: Induction of glucose-stimulated insulin secretion in pancreatic islets cells isolated from wild type mouse; assay type: functional, cell-based
INS-1E [8] = test: Enhancement of glucose-stimulated insulin secretion in rat INS-1E cells at 3 uM; assay type: functional, cell-based
[9] = target: T2, Free fatty acid receptor 3 (Homo sapiens) (UniProt O14843); test: Agonist activity at FFA3; assay type: functional
T2 sequence (whole entry): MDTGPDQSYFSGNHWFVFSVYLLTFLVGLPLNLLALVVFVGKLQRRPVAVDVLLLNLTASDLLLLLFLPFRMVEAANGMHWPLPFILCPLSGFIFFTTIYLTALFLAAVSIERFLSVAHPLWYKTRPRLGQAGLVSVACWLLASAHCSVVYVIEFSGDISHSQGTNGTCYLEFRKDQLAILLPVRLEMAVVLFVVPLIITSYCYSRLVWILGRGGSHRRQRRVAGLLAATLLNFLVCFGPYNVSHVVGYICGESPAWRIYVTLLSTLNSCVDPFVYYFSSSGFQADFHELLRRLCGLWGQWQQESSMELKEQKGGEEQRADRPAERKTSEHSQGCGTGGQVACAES

[10] = target: T3, Free fatty acid receptor 2 (Homo sapiens) (UniProt O15552); test: Agonist activity at FFA2; assay type: functional
T3 sequence (whole entry): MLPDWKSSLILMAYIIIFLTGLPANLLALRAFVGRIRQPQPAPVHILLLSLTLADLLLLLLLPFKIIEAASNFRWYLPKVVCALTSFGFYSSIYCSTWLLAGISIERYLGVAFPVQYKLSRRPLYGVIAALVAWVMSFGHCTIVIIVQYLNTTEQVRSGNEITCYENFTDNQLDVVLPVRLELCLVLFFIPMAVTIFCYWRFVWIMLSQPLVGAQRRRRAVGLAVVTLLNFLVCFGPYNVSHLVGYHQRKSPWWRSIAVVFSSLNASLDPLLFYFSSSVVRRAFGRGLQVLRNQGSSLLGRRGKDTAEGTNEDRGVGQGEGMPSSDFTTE

[11] = target: T1, Free fatty acid receptor 1; test: Agonist activity at human FFA1 expressed in human 1321N1 cells up to 31.6 uM by calcium fluorescence assay; assay type: functional, cell-based

SMILES | Activity [1] [%] | Activity [9] | Activity [10] | EC50 [2] [nM] | further results
Cc1ccccc1C#Cc1ccc(CCC(=O)O)cc1 | 105 | inactive | inactive | – | pEC50 [2]: 7.49; Activity (INS-1E [3]): Active; Activity (Pancreatic islet [4]): inactive; Activity (INS-1E [5]): Active; Activity (INS-1E [6]): Active; Activity (Pancreatic islet [7]): inactive; Activity (INS-1E [8]): Active
O=C(O)CCc1ccc(C#Cc2cccc(CO)c2)cc1 | 103 | inactive | inactive | – | –
Cc1ccc(C#Cc2ccc(OCC(=O)O)cc2)cc1 | – | inactive | inactive | – | Activity [11]: inactive
Nc1cccc(C#Cc2ccc(CCC(=O)O)cc2)c1 | 96 | inactive | inactive | – | –
O=C(O)COc1ccc(C#Cc2ccc(CO)cc2)cc1 | – | inactive | inactive | – | Activity [11]: inactive
O=C(O)COc1ccc(C#Cc2ccccc2)cc1 | 104 | inactive | inactive | 1260 | –
Cc1cc(C)cc(C#Cc2ccc(CCC(=O)O)cc2)c1 | 101 | inactive | inactive | – | –
O=C(O)CCc1ccc(C#Cc2cccc3ccccc23)cc1 | 100 | inactive | inactive | 85.1 | –
O=C(O)CCc1ccc(C#Cc2cccc(C(F)(F)F)c2)cc1 | 98 | inactive | inactive | – | –
N#Cc1cccc(C#Cc2ccc(CCC(=O)O)cc2)c1 | 92 | inactive | inactive | – | –
O=C(O)CCc1ccc(C#Cc2ccccc2)cc1 | 106 | inactive | inactive | – | pEC50 [2]: 7.02
O=C(O)COc1ccc(C#Cc2cccc(O)c2)cc1 | 86 | inactive | inactive | 5620 | –
O=Cc1cccc(C#Cc2ccc(CCC(=O)O)cc2)c1 | 94 | inactive | inactive | – | –
O=C(O)CCc1ccc(C#Cc2cccc([N+](=O)[O-])c2)cc1 | 94 | inactive | inactive | 58.9 | –
C#Cc1cccc(C#Cc2ccc(CCC(=O)O)cc2)c1 | 100 | inactive | inactive | – | –
Cc1cccc(C#Cc2ccc(CCC(=O)O)cc2)c1C | 108 | inactive | inactive | – | –
O=C(O)COc1ccc(C#Cc2ccc(O)cc2)cc1 | – | inactive | inactive | – | Activity [11]: inactive
Cc1cccc(C#Cc2ccc(OCC(=O)O)cc2)c1 | 113 | inactive | inactive | 513 | –
Cc1ccccc1C#Cc1ccc(OCC(=O)O)cc1 | 96 | inactive | inactive | 3720 | –
Cc1ccc(C#Cc2ccc(CCC(=O)O)cc2)cc1 | 99 | inactive | inactive | 107 | –
Cc1cccc(C#Cc2ccc(CCC(=O)O)cc2)c1 | 109 | inactive | inactive | – | –
